Results: patent US5519016A, “Aryl group- or aromatic heterocyclic group-substituted aminoquinolone derivatives and anti-HIV agent” (priority 1992, dated 1996)
Values after ≈ are worked out from the molar mass of the structure shown. Structures can show the parent of a compound that is named as a salt. Where two headings read alike, the source gives them in different places.

Columns and labels:
HIV [1] = assay: microbe, parasite or virus in culture; assay type: cell-based; settings: for S.I. (selective index, CC50 /EC50): CC50 = 50% growth inhibition of non-infected cells, 7200 min; for EC50: Human immunodeficiency virus 1, MT4, 120 h, 50% CPE inhibition in HIV infected MT-4 cells, 5 days, 37° C.
Text: Exponentially growing MT-4 cells were centrifuged, and the pellets were resuspended in RPMI-1640 medium containing 10% fetal serum (serum medium). Portions of the cell suspension were either inoculated with HIV, or left uninfected. Serum medium was then further added to the suspensions, which were then washed and centrifuged. The resulting pellets were then suspended in serum medium to a concentration of 4×10^5 cells/mi. Preparations of the test compound (in serum medium) were […] in a stepwise manner, and 100 μl of each of the solutions were placed in separated wells of a 96-well plastic microtitre plate. 100 μl of each of the cell suspensions (infected and non-infected) were then added to the wells, so that each dilution of each of the test compounds was tested against both infected and noninfected cells. Blanks (not added either of the cells) were also prepared. The preparations were then cultured by standing the plate at 37° C. for 5 days in the presence of 5 % carbon dioxide gas.
At the end of this time, living cells were assayed for CPE inhibitory activity by the spectrophotometric assay of the blue formazan produced by the reduction of MTT [3-(4,5-dimethylthiazol-2-yl) -2,5-diphenyl-tetrazolium bromide]which was added to the preparations.
CPE inhibitory activity was defined as 100% in non-infected cells to which no test compounds had been added, while CPE inhibitory activity was defined as 0% in infected cells to which test compounds had not been added.

HIV [2] = settings: literature / WO-A-90-13542; cited from earlier work

O=C(O)c1cn(C2CC2)c2cc(N3CCNCC3)c(F)cc2c1=O [Ciprofloxacin, reference compound]
anti-HIV activity (in words) (HIV [1]): little or no anti-HIV activity | anti-HIV activity (reported) (HIV [2]): anti-HIV activity

O=C(O)c1cn(C2CC2)c2c(OC(F)F)c(N3CCN(c4nc5ccccc5o4)CC3)c(F)cc2c1=O [Example 21]
S.I. (selective index, CC50 /EC50) (HIV [1]): 16 | EC50 (HIV [1]): 0.037 µg/mL (≈ 0.0719 µM)

CN1CCN(c2cc3c(cc2F)c(=O)c(C(=O)O)cn3-c2ccc(F)cc2)CC1 [Difloxacin, reference compound]
anti-HIV activity (in words) (HIV [1]; Pauwel method): little or no anti-HIV activity | anti-HIV activity (reported) (HIV [2]): anti-HIV activity

Cn1cc(C(=O)O)c(=O)c2cc(F)c(N3CCN(c4ncccn4)CC3)c(OC(F)F)c21 [Example 24, 6-fluoro-8-difluoromethoxy-1-methyl-7-[4-(2-pyrimidinyl)piperazin-1-yl]-1,4-dihydro-4-oxoquinoline-3-carboxylic acid]
S.I. (selective index, CC50 /EC50) (HIV [1]): 257 | EC50 (HIV [1]): 0.07 µg/mL (≈ 0.156 µM)

CCn1cc(C(=O)O)c(=O)c2cc(F)c(N3CCN(c4ccccc4OC)CC3)c(OC(F)F)c21 [Example 63, 1-ethyl-6-fluoro-8-difluoromethoxy-7-[4-(2-methoxyphenyl)piperazin-1-yl]-1,4-dihydro-4-oxoquinoline-3carboxylic acid]
S.I. (selective index, CC50 /EC50) (HIV [1]): 1000 | EC50 (HIV [1]): 0.01 µg/mL (≈ 0.0203 µM)

COc1ccccc1N1CCN(c2c(F)cc3c(=O)c(C(=O)O)cn(CCF)c3c2OC)CC1 [Example 70]
S.I. (selective index, CC50 /EC50) (HIV [1]): 20 | EC50 (HIV [1]): 0.5 µg/mL (≈ 1.06 µM)

CNn1cc(C(=O)O)c(=O)c2cc(F)c(N3CCN(c4ncccn4)CC3)c(OC(F)F)c21 [Example 53]
S.I. (selective index, CC50 /EC50) (HIV [1]): > 83 | EC50 (HIV [1]): 0.3 µg/mL (≈ 0.646 µM)

COc1ccccc1N1CCN(c2c(F)cc3c(=O)c(C(=O)O)cn(CCOC(C)=O)c3c2OC(F)F)CC1 [Example 46, 1-(2-acetoxyethyl)-6-fluoro-8-difluoromethoxy-7-[4-(2-methoxyphenyl)piperazin-1-yl]-1,4-dihydro-4-oxoquinoline-3-carboxylic acid]
S.I. (selective index, CC50 /EC50) (HIV [1]): 155 | EC50 (HIV [1]): 0.06 µg/mL (≈ 0.109 µM)

COc1ccccc1N1CCN(c2c(F)cc3c(=O)c(C(=O)O)cn(C)c3c2OC(F)F)CC1 [Example 23, 6-fluoro-8-difluoromethoxy-1-methyl-7-[4-(2-methoxyphenyl)piperazin-1-yl]-1,4-dihydro-4-oxoquinoline-3-carboxylic acid]
S.I. (selective index, CC50 /EC50) (HIV [1]): 309 | EC50 (HIV [1]): 0.021 µg/mL (≈ 0.044 µM)

CCn1cc(C(=O)O)c(=O)c2cc(F)c(N3CCN(c4ncccn4)C(C)C3)c(OC(F)F)c21 (stereo not drawn) [Example 94, 1-ethyl-6-fluoro-8-difluoromethoxy-7-[3-methyl-4-(2-pyrimidinyl)piperazin-1-yl]-1,4-dihydro-4-oxoquinoline-3-carboxylic acid]
S.I. (selective index, CC50 /EC50) (HIV [1]): 21 | EC50 (HIV [1]): 0.5 µg/mL (≈ 1.05 µM)

O=C(O)c1cn(C2CC2)c2c(OC(F)F)c(N3CCN(c4ccc(F)cc4)CC3)c(F)cc2c1=O [Example 6]
S.I. (selective index, CC50 /EC50) (HIV [1]): 34 | EC50 (HIV [1]): 0.02 µg/mL (≈ 0.0407 µM)

COc1cccc(N2CCN(c3c(F)cc4c(=O)c(C(=O)O)cn(C5CC5)c4c3OC(F)F)CC2)c1 [Example 7]
S.I. (selective index, CC50 /EC50) (HIV [1]): 113 | EC50 (HIV [1]): 0.22 µg/mL (≈ 0.437 µM)

O=C(O)c1cn(C2CC2)c2c(OC(F)F)c(N3CCN(c4ncc(Cl)cn4)CC3)c(F)cc2c1=O [Example 19]
S.I. (selective index, CC50 /EC50) (HIV [1]): 57 | EC50 (HIV [1]): 0.07 µg/mL (≈ 0.137 µM)

COc1ccc(N2CCN(c3c(F)cc4c(=O)c(C(=O)O)cn(C5CC5)c4c3OC(F)F)CC2)cc1 [Example 8, 1-cyclopropyl-6-fluoro-8-difluoromethoxy-7-[4-(4-methoxyphenyl)piperazin-1-yl]-1,4-dihydro-4-oxoquinoline-3carboxylic acid]
S.I. (selective index, CC50 /EC50) (HIV [1]): 500 | EC50 (HIV [1]): 0.1 µg/mL (≈ 0.199 µM)

CC(C)(C)n1cc(C(=O)O)c(=O)c2cc(F)c(N3CCN(c4ncccn4)CC3)cc21 [Example 95]
S.I. (selective index, CC50 /EC50) (HIV [1]): > 62 | EC50 (HIV [1]): 0.4 µg/mL (≈ 0.94 µM)

CCn1cc(C(=O)O)c(=O)c2cc(F)c(N3CCN(c4ncccn4)CC3)c(OC(F)F)c21 [Example 67, 1-ethyl-6-fluoro-8-difluoromethoxy-7-[4-(2-pyrimidinyl)piperazin-1-yl]-1,4-dihydro-4-oxoquinoline-3-carboxylic acid]
S.I. (selective index, CC50 /EC50) (HIV [1]): > 500 | EC50 (HIV [1]): 0.08 µg/mL (≈ 0.173 µM)

O=C(O)c1cn(C2CC2)c2c(OC(F)F)c(N3CCN(c4ccccc4)CC3)c(F)cc2c1=O [Example 2, 1-cyclopropyl-6-fluoro-8-difluoromethoxy-7-(4-phenylpiperazin-1-yl)-1,4-dihydro-4-oxoquinoline-3-carboxylic acid]
S.I. (selective index, CC50 /EC50) (HIV [1]): 100 | EC50 (HIV [1]): 0.03 µg/mL (≈ 0.0634 µM)

COc1ccccc1N1CCN(c2c(F)cc3c(=O)c(C(=O)O)cn(CCF)c3c2OC(F)F)CC1 [Example 38]
S.I. (selective index, CC50 /EC50) (HIV [1]): 79 | EC50 (HIV [1]): 0.07 µg/mL (≈ 0.137 µM)

CCn1cc(C(=O)O)c(=O)c2cc(F)c(N3CCN(c4cnccn4)CC3)c(OC(F)F)c21 [Example 37]
S.I. (selective index, CC50 /EC50) (HIV [1]): > 109 | EC50 (HIV [1]): 0.23 µg/mL (≈ 0.496 µM)

CCn1cc(C(=O)O)c(=O)c2cc(F)c(N3CCNC(C)C3)c(F)c21 (stereo not drawn) [Lomefloxacin, reference compound]
anti-HIV activity (in words) (HIV [1]; Pauwel method): little or no anti-HIV activity | anti-HIV activity (reported) (HIV [2]): anti-HIV activity

CC1Sc2c(C(=O)O)c(=O)c3cc(F)c(N4CCN(c5ncccn5)CC4)cc3n21 (stereo not drawn) [Example 100, 6-fluoro-1-methyl-4-oxo-7-[4-(2-pyrimidinyl)piperazin-1-yl]-1H, 4H-[1,3]thiazeto[3,2-a]quinoline-3-carboxylic acid]
S.I. (selective index, CC50 /EC50) (HIV [1]): 9 | EC50 (HIV [1]): 0.4 µg/mL (≈ 0.936 µM)

CCn1cc(C(=O)O)c(=O)c2ccc(N3CCN(c4ncccn4)CC3)c(OC(F)F)c21 [Example 99, 1-ethyl-8-difluoromethoxy-7-[4-(2-pyrimidinyl)piperazin-1-yl]-1,4-dihydro-4-oxoquinoline-3-carboxylic acid]
S.I. (selective index, CC50 /EC50) (HIV [1]): > 25 | EC50 (HIV [1]): 1 µg/mL (≈ 2.25 µM)

CC1COc2c(N3CCN(c4ccccn4)CC3)c(F)cc3c(=O)c(C(=O)O)cn1c23 (stereo not drawn) [Example 85]
S.I. (selective index, CC50 /EC50) (HIV [1]): 17 | EC50 (HIV [1]): 1 µg/mL (≈ 2.36 µM)

CCn1cc(C(=O)O)c(=O)c2cc(F)c(N3CCNCC3)nc21 [Enoxacin, reference compound]
anti-HIV activity (in words) (HIV [1]; Pauwel method): little or no anti-HIV activity | anti-HIV activity (reported) (HIV [2]): anti-HIV activity

O=C(O)c1cn2c3c(c(N4CCN(c5ncccn5)CC4)c(F)cc3c1=O)OCC2CF (stereo not drawn) [Example 87, 9-fluoro-3-fluoromethyl-10-[4-(2-pyrimidinyl)piperazin-1yl]-2,3-dihydro-7-oxo-7H -pyrido[1,2,3-de][1,4]benzoxazine-6-carboxylic acid]
S.I. (selective index, CC50 /EC50) (HIV [1]): > 512 | EC50 (HIV [1]): 0.074 µg/mL (≈ 0.167 µM)

COc1ccccc1N1CCN(c2c(F)cc3c(=O)c(C(=O)O)cn(C4CC4)c3c2OC(F)F)CC1 [Example 1, 1-cyclopropyl-6-fluoro-8-difluoromethoxy-7-[4-(2-methoxyphenyl)piperazin-1-yl]-1,4-dihydro-4-oxoquinoline-3-carboxylic acid.hydrochloride]
S.I. (selective index, CC50 /EC50) (HIV [1]): 400 | EC50 (HIV [1]): 0.015 µg/mL

O=C(O)c1cn(C2CC2)c2c(OC(F)F)c(N3CCN(c4ncccn4)CC3)c(F)cc2c1=O [Example 18, 1-cyclopropyl-6-fluoro-8-difluoromethoxy-7-[4-(2-pyrimidinyl)piperazin-1-yl]-1,4-dihydro-4-oxoquinoline-3-carboxylic acid]
S.I. (selective index, CC50 /EC50) (HIV [1]): 121 | EC50 (HIV [1]): 0.07 µg/mL (≈ 0.147 µM)

COc1ccccc1N1CCN(c2c(F)c(N)c3c(=O)c(C(=O)O)cn(C(C)C)c3c2OC(F)F)CC1 [Example 29]
S.I. (selective index, CC50 /EC50) (HIV [1]): 22 | EC50 (HIV [1]): 0.05 µg/mL (≈ 0.0961 µM)

CCn1cc(C(=O)O)c(=O)c2cc(F)c(N3CCN(c4ncccn4)CC3)nc21 [Example 92]
S.I. (selective index, CC50 /EC50) (HIV [1]): 31 | EC50 (HIV [1]): 0.8 µg/mL (≈ 2.01 µM)

C[C@H]1COc2c(N3CCN(C)CC3)c(F)cc3c(=O)c(C(=O)O)cn1c23 [DR-3355, reference compound]
anti-HIV activity (in words) (HIV [1]; Pauwel method): have failed | anti-HIV activity (reported) (HIV [2]): Anti-HIV activity has recently been reported

NC1CCN(c2nc3c(cc2F)c(=O)c(C(=O)O)cn3-c2ccc(F)cc2F)C1 (stereo not drawn) [Tosufloxacin, reference compound]
anti-HIV activity (in words) (HIV [1]; Pauwel method): little or no anti-HIV activity | anti-HIV activity (reported) (HIV [2]): anti-HIV activity

CCn1cc(C(=O)O)c(=O)c2cc(F)c(N3CCNCC3)cc21 [Norfloxacin, reference compound]
anti-HIV activity (in words) (HIV [1]; Pauwel method): little or no anti-HIV activity | anti-HIV activity (reported) (HIV [2]): anti-HIV activity

O=C(O)c1cn(C2CC2)c2c(OC(F)F)c(N3CCN(c4ncccc4[N+](=O)[O-])CC3)c(F)cc2c1=O [Example 17]
S.I. (selective index, CC50 /EC50) (HIV [1]): 250 | EC50 (HIV [1]): 0.5 µg/mL (≈ 0.963 µM)
